What was measured:
[1] = Pharmacokinetic evaluation in healthy subjects: myoinositol plus alpha lactalbumin (plasma myoinositol by GCMS); assay type: in vivo; details: both sexes, human, single oral dose in powder, 6 g myoinositol alone or plus 150 mg alpha lactalbumin, 15 healthy volunteers, mean
Description: The present example describes a pharmacokinetic study combining the oral administration of myoinositol and alpha lactalbumin in healthy subjects. The study aims to determine whether the combination of myoinositol and alpha lactalbumin is able to increase the plasma level of myoinositol above that observed after administering myoinositol alone. The study involved 15 healthy volunteers, 6 men and 9 women. […] Subjects received orally 6 g of myoinositol in powder form and then, after a washout period of 7 days, 6 g of myoinositol and 150 mg alpha lactalbumin, also in powder form.

anovulatory PCOS women = details: 4 g/day myoinositol; cited from earlier work
[2] = system: anovulatory PCOS patients; assay: Clinical evaluation on PCOS women: ovulation assessed by ultrasound examination; assay type: in vivo, human; details: two sachets per day
Description: The present study aims to develop an efficacious therapy in women suffering from PCOS based on the improved absorption of inositol, e.g. myoinositol, when administered in combination with alpha lactalbumin. Specifically, while treatment of PCOS with myoinositol alone correlates to an improvement in the disease in a significant number of women, there remain women who still fail to respond to treatment with myoinositol alone. The present inventors thus sought to determine whether the higher level of myoinositol absorption observed when administering myoinositol together with alpha lactalbumin might allow successful treatment of PCOS patients who had previously not responded to treatment with myoinositol alone. If so, then the treatment of PCOS with inositol in combination with alpha lactalbumin, e.g. myoinositol in combination with alpha lactalbumin, would represent a significant therapeutic advance, allowing treatment of PCOS in previously recalcitrant cases, thereby substantially extending the therapeutic benefit of inositol, e.g. myoinositol, in treating PCOS.
The present study included 20 anovulatory PCOS patients.
Inclusion criteria were: age 20-35 years; PCOS according to Rotterdam ESHRE-ASRM consensus workshop group; anovulation and infertility >1 year. Indeed, according to Rotterdam criteria, PCOS was diagnosed performed if 2 out of the 3 following factors were fulfilled: a) oligo- or anovulation, b) clinical and/or biochemical signs of hyperandrogenism, and c) polycystic ovaries.
Patients were excluded in the event of other conditions causing ovulatory dysfunction, such as hyperprolactinemia or hypothyroidism, or androgen excess, such as adrenal hyperplasia or Cushing's syndrome, and also in the case of intake of other drugs that can potentially influence ovulation.
All the patients were given myoinositol (Inofolic®, Lo.Li. Pharma, Rome, Italy), containing 2 g myoinositol and 0.2 mg folic acid in dose of two sachets per day before meals, in order to induce ovulation.
Ovulation was assessed using ultrasound examination on days 12, 14 and 20 of the cycle. Treatment was performed for three months.
These 7 non-responders then became the subject of a second phase of the study, in which they received treatment with myoinositol in combination with alpha lactalbumin.
(§1) Specifically, myoinositol plasma levels were tested in these non-responding patients; a mean value of 17±3.5 μmol/l myoinositol was observed. Successively, a treatment with 2 g myoinositol, 0.2 mg folic acid and 50 mg alpha lactalbumin was performed in doses of two powder sachets per day before meals during the next three months. Of the 7 myoinositol resistant patients after combined treatment with myoinositol and alpha lactalbumin, 5 of the original non-responders (i.e. 71% of the original non-responders) ovulated. […]

clinical = details: female, human, in vivo
Experimental: as §1

[3] = system: women affected by idiopathic infertility; assay: Clinical evaluation on women affected by idiopathic infertility: biochemical pregnancy (beta hCG assay); assay type: in vivo, human; details: first phase: 40 women; 2 g myoinositol + 0.2 mg folic acid (Inofolic), two sachets per day, 3 months
Description: The present study aims to develop an efficacious therapy in women suffering from idiopathic infertility based on the improved absorption of inositol, e.g. myoinositol, when administered in combination with alpha lactalbumin. Specifically, while treatment of idiopathic infertility with myoinositol alone correlates to an improvement in the disease in a significant number of women, there remain women who still fail to respond to treatment with myoinositol alone. The present inventors thus sought to determine whether the higher level of myoinositol absorption observed when administering myoinositol together with alpha lactalbumin might allow successful treatment of idiopathic infertility patients who had previously not responded to treatment with myoinositol alone. If so, then the treatment of idiopathic infertility with inositol in combination with alpha lactalbumin, e.g. myoinositol in combination with alpha lactalbumin, would represent a significant therapeutic advance, allowing treatment of idiopathic infertility in previously recalcitrant cases, thereby substantially extending the therapeutic benefit of inositol, e.g. myoinositol, in treating idiopathic infertility. The present study included 40 women affected by idiopathic infertility. Inclusion criteria were: women affected by idiopathic infertility as defined below, aged 30-40 years, who were not receiving any therapy with drugs which potentially influence ovulation. Patients were given a thorough evaluation and were tested for a number of diseases, as described in the following. Testing positive for any of these diseases tested sufficed to exclude a patient as being “idiopathically infertile”. Specifically, patients were excluded from this trial in the event they were diagnosed positive for any of: hyperprolactinemia, hypothyroidism, Cushing's syndrome, adrenal hyperplasia, obesity, polycystic ovary syndrome (PCOS) or anovulation. The person skilled in the art can routinely diagnose each of the above mentioned conditions. For example, hyperprolactinemia can be diagnosed when serum prolactin levels are found to be over 20 μg/L, as e.g. described in Serri et al., CMAJ, 2003, 169(6): 575-581. Hypothyroidism can be diagnosed when the serum TSH level is found to be over 4.5 mIU/L (Garber et al., CLINICAL PRACTICE GUIDELINES FOR HYPOTHYROIDISM IN ADULTS: COSPONSORED BY THE AMERICAN ASSOCIATION OF CLINICAL ENDOCRINOLOGISTS AND THE AMERICAN THYROID ASSOCIATION; Endocrine Practice vol. 18 No. 6, 2012). Cushing's syndrome can be diagnosed according to Nieman et al., J. Clin. Endocrinol. […] The primary readout was the achievement of biochemical pregnancy as assessed using an assay (HCG Combo Card, Shanghai Chemtron Biotech Co., Ltd., catalog.no. 6011C31-4) for beta human chorionic gonadotropin (beta hCG). […]

[4] = first phase: 20 anovulatory PCOS patients, 2 g myoinositol + 0.2 mg folic acid (Inofolic), three months

## O[C@H]1[C@H](O)[C@@H](O)[C@H](O)[C@@H](O)[C@H]1O [myoinositol]
[1]
  Cmax: 98 µM
  Tmax: 3 h
Anovulatory PCOS women
  non-responders (patients who did not ovulate after treatment): 38.3%
[2]; 7 PCOS patients non-responsive to myoinositol, after 3 months of the treatment, combination: 2 g myoinositol, 0.2 mg folic acid, 50 mg alpha lactalbumin
  OVULATION T3 (number of patients): 0
[2]; [4]
  women resistant, did not ovulate (%): 35%
  women resistant, did not ovulate (number of 20): 7
  women who ovulated (%): 65%
  women who ovulated (number of 20): 13
clinical
  concentration at 3 months: 17 ± 3.5 µM
  myoinositol plasma level in patients who responded positively: 38 µmol/L
clinical; 3 months
  MYOINOSITOL PLASMA LEVELS T3 mean (±SD): 17 (3.5) μmol/l
[3]
  Achieving biochemical pregnancy %: 52.5%
  Achieving biochemical pregnancy (number): 21
  Not achieving biochemical pregnancy %: 47.5%
  Not achieving biochemical pregnancy (number): 19
